Data published in ChEMBL document CHEMBL1128685, “Novel and potent adenosine 3',5'-cyclic phosphate phosphodiesterase III inhibitors: thiazolo[4,5-b][1,6]naphthyridin-2-ones” (J Med Chem, 1995).

What follows are molecules tested against Phosphodiesterase 3 (Homo sapiens, UniProt Q14432+Q13370) (assay: Inhibition of cAMP PDE 3).
Format: protein assay

Q: Which IC50 does the source give for `Oc1ccc(-c2nccc3nc4nc(O)sc4cc23)cc1` here?
A: 240 nM

Q: How did the IC50 turn out when `CCc1nccc2nc3nc(O)sc3cc12` was run?
A: 22 nM

Q: For `O=[N+]([O-])c1cc(-c2nccc3nc4nc(O)sc4cc23)ccc1O`, which IC50 is on record?
A: 83 nM

Q: With `CC(C)Cc1nccc2nc3nc(O)sc3cc12` as the molecule, how does the IC50 read?
A: 330 nM

Q: For `Cc1nccc2nc3nc(O)sc3cc12`, which IC50 is on record?
A: 62 nM

Q: How did the IC50 turn out when `CCCc1nccc2nc3nc(O)sc3cc12` was run?
A: 67 nM

Q: `Oc1nc2nc3ccnc(-c4ccccc4)c3cc2s1` was tested. Which IC50 did it give?
A: 430 nM
